{"source": "patent US6596871B2", "about": "“Polymorphic forms of 6-[4-(1-cyclohexyl-1h-tetraol-5-yl)butoxy]-3,4-dihydro-2(1H)-quinolinone” (priority 2001, dated 2003)", "key": {"[1]": {"test": "bioavailability of cilostazol Form A", "assay_type": "in vivo", "conditions": "Form A as prepared by the procedures of the '479 patent"}, "[2]": {"test": "aqueous solubility of cilostazol Form A", "assay_type": "physicochemical", "conditions": "Form A as prepared by the procedures of the '479 patent"}, "[3]": {"test": "relative solubility inferred from DSC melting behaviour", "assay_type": "physicochemical", "conditions": "suggested by lower melting point / weaker crystal packing forces in DSC thermogram (FIG. 8)", "excerpt": "(§1) Characterization of Form A of cilostazol, Form B of cilostazol, and Form C of cilostazol was further completed using DSC thermograms, shown in FIGS. 3, 4, and 5, respectively, with DSC thermograms for combinations of Form A and Form B; Form B and Form C; and Forms A, B, and C are shown in FIGS. 6, 7, and 8 respectively. DSC data were generated using a Mettler-Toledo DSC 821^e (Columbus, Ohio) with a Julabo FT900 intercooler chiller (Julabo Company; Allentown, Pa.). In general, samples were analyzed in a vented, sealed aluminum pan. Because the endothermic peak may vary depending upon the rate of heating and the calibration and precision of the instrument, with the amount of peak variation dependent upon the heating rate used, all thermograms included herein were run under the same, consistent conditions: heating at 10° C. per minute under a nitrogen purge at 40 mL/minute.\nFIG. 8 illustrates a DSC thermogram for the combination of Form A, Form B and Form C having a second heating cycle with a maximum temperature of about 110° C. with a holding time of about 30 minutes. The peaks in the third heating cycle show a Form A to Form B to Form C peak area ratio of approximately 8:2:1, respectively, with the relative amount of Form A, Form B and Form C further variable on the heat of enthalpy of each polymorphic form."}, "[4]": {"test": "solid state phase transformation of disturbed/stressed sample on heating by DSC", "assay_type": "physicochemical", "conditions": "sample disturbed (scratching/stress), heated by DSC from 30° C. to approximately 200° C. at 10° C. per minute", "excerpt": "as §1, with “mL/minute. The resultant sample of Example 1A was disturbed with scratching, which caused the cilostazol sample to undergo a solid state phase transformation at approximately 119° C. followed by an endotherm of melt at approximately 160° C. (Form A) during heating by DSC from 30° C. to approximately 200° C. at 10° C. per minute. When the sample is stressed and reheated (as detailed in Example 2A), the sample undergoes a solid state phase transformation at approximately 147° C. followed by an endotherm of melt at about 160° C. […]” for “mL/minute.”"}, "[5]": {"test": "stability of the polymorphic form", "assay_type": "physicochemical"}}, "data": [{"molecule": "O=C1CCc2cc(OCCCCc3nnnn3C3CCCCC3)ccc2N1", "note": "[Form A, 6-[4-(1-cyclohexyl-1H-tetrazol-5-yl)butoxy]-3,4-dihydro-2(1H)-quinolinone]", "values": [{"measurement": "bioavailability", "setting": "[1]", "value": "low"}, {"measurement": "aqueous solubility", "setting": "[2]", "value": "low"}]}, {"molecule": "O=C1CCc2cc(OCCCCc3nnnn3C3CCCCC3)ccc2N1", "note": "[Form B, 6-[4-(1-cyclohexyl-1H-tetrazol-5-yl)butoxy]-3,4-dihydro-2(1H)-quinolinone]", "values": [{"measurement": "solubility relative to Form A", "setting": "[3]", "value": "more soluble than Form A"}, {"measurement": "solid state phase transformation temperature (to Form A)", "setting": "[4]", "value": "approximately 119 °C"}, {"measurement": "stability of the crystalline form", "setting": "[5]", "value": "stable"}]}, {"molecule": "O=C1CCc2cc(OCCCCc3nnnn3C3CCCCC3)ccc2N1", "note": "[Form C, 6-[4-(1-cyclohexyl-1H-tetrazol-5-yl)butoxy]-3,4-dihydro-2(1H)-quinolinone]", "values": [{"measurement": "solubility relative to Form A", "setting": "[3]", "value": "more soluble than Form A"}, {"measurement": "solid state phase transformation temperature (to Form A)", "setting": "[4]", "value": "approximately 147 °C"}, {"measurement": "stability of the crystalline form", "setting": "[5]", "value": "stable"}]}]}
